Test results as given in the supplement of paper PMC10331698.
± gives the standard deviation of the averaged measurements.

Experiments:
Experiment in all cases: level (log10 ratio to DMSO vehicle control); higher = higher biomarker level / cell amount than vehicle control
[1] = compound: FC(F)(F)C(F)(F)C(F)(F)C(F)(F)C(F)(F)C(F)(F)C(F)(F)I [1-Iodopentadecafluoroheptane]; settings: in DMSO
Description: (§1)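 BioMAP Diversity Plus panel of 12 human primary cell co-culture systems (3C, 4H, LPS, SAg, BT, BF4T, BE3C, CASM3C, HDF3CGF, KF3CT, MyoF, Mphg). Compounds were added 1 h before stimulation and left for 24 h (MyoF 48 h; BT 72 h for soluble read-outs or 6 d for IgG). Biomarkers were read by ELISA, cytotoxicity by SRB, PBMC viability and proliferation by Alamar Blue. Each well value was divided by the mean of 8 DMSO control wells on the same plate and log10 transformed; duplicate blinded samples were tested at 4 concentrations.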

Hexafluoroamylene glycol = compound: OCC(F)(F)C(F)(F)C(F)(F)CO [Hexafluoroamylene glycol]; settings: in DMSO
Description: as §1

[2] = compound: C=CC(=O)OCC(F)(F)C(F)(F)C(F)(F)COC(=O)C=C [1H,1H,5H,5H-Perfluoro-1,5-pentanediol diacrylate]; settings: 6700 nM; in DMSO
Description: as §1

[3] = compound: COC(=O)C(F)(F)C(F)(F)OC(F)(C(F)(F)F)C(F)(F)OC(F)=C(F)F [Methyl perfluoro(3-(1-ethenyloxypropan-2-yloxy)propanoate)]; settings: in DMSO
Description: as §1

[4] = compound: NS(=O)(=O)C(F)(F)C(F)(F)C(F)(F)C(F)(F)C(F)(F)C(F)(F)F [Perfluorohexanesulfonamide]; settings: in DMSO
Description: as §1

Nonafluoropentanamide = compound: NC(=O)C(F)(F)C(F)(F)C(F)(F)C(F)(F)F [Nonafluoropentanamide]; settings: in DMSO
Description: as §1

[5] = compound: O=S(=O)(O)CCC(F)(F)C(F)(F)C(F)(F)C(F)(F)C(F)(F)C(F)(F)F [6:2 Fluorotelomer sulfonic acid]; settings: in DMSO
Description: as §1

[6] = compound: FC(F)(F)C(F)(F)CNCC(F)(F)C(F)(F)F [Bis(1H,1H-perfluoropropyl)amine]; settings: in DMSO
Description: as §1

Test System | level (log10) ([1]; 6700 nM) | level (log10) ([1]; 20000 nM) | level (log10) (Hexafluoroamylene glycol; 6700 nM) | level (log10) (Hexafluoroamylene glycol; 20000 nM) | level (log10) (Hexafluoroamylene glycol; 60000 nM) | level (log10) [2] | level (log10) ([3]; 6700 nM) | level (log10) ([3]; 20000 nM) | level (log10) ([4]; 6700 nM) | level (log10) ([4]; 20000 nM) | level (log10) ([4]; 60000 nM) | level (log10) (Nonafluoropentanamide; 6700 nM) | level (log10) (Nonafluoropentanamide; 20000 nM) | level (log10) (Nonafluoropentanamide; 60000 nM) | level (log10) ([5]; 6700 nM) | level (log10) ([5]; 20000 nM) | level (log10) ([5]; 60000 nM) | level (log10) ([6]; 6700 nM) | level (log10) ([6]; 20000 nM) | level (log10) ([6]; 60000 nM)
CASM3C:CD106/VCAM-1 | -0.0125 ± 0.005 | -0.019 ± 0.034 | -0.0015 ± 0.023 | -0.012 ± 0.025 | -0.0015 ± 0.021 | -0.119 ± 0.011 | -0.024 ± 0.011 | -0.04 ± 0.021 | -0.014 ± 0.016 | -0.0285 ± 0.005 | -0.0235 ± 0.0064 | -0.0405 ± 0.039 | -0.0105 ± 0.0035 | 0.01 ± 0.042 | -0.008 ± 0.011 | -0.0325 ± 0.022 | -0.0605 ± 0.026 | -0.06 ± 0.024 | -0.0545 ± 0.026 | -0.0105 ± 0.053
HDF3CGF:CXCL9/MIG | -0.016 ± 0.0042 | 0.0015 ± 0.0064 | -0.001 ± 0.038 | 0.0055 ± 0.035 | -0.035 ± 0.083 | -0.779 | 0.01 ± 0.0014 | -0.063 ± 0.014 | 0.0165 ± 0.019 | 0.01 ± 0.028 | -0.061 ± 0.037 | 0.017 ± 0.0028 | -0.0025 ± 0.0064 | 0.005 ± 0.018 | -0.013 ± 0.048 | -0.0395 ± 0.018 | -0.046 ± 0.038 | -0.002 ± 0.0028 | -0.0025 ± 0.018 | 0.004 ± 0.024
KF3CT:CCL2/MCP-1 | 0.0065 ± 0.0092 | 0.0015 ± 0.016 | 0.0125 ± 0.005 | 0.012 ± 0.0085 | 0.0085 ± 0.021 | -0.0955 ± 0.018 | -0.015 ± 0.0014 | 0.01 ± 0.0099 | -0.0225 ± 0.021 | -0.0525 ± 0.013 | -0.0145 ± 0.013 | 0.0175 ± 0.032 | 0.02 ± 0.0042 | 0.0215 ± 0.018 | 0.0125 ± 0.00071 | 0.0035 ± 0.013 | -0.0145 ± 0.043 | -0.0015 ± 0.05 | 0.001 ± 0.048 | -0.012 ± 0.042
CASM3C:Serum Amyloid A | -0.035 | 0.008 ± 0.024 | 0.016 ± 0.014 | -0.0055 ± 0.069 | 0.002 ± 0.0014 | -0.038 ± 0.0057 | 0.007 ± 0.011 | 0.009 ± 0.023 | -0.0055 ± 0.039 | 0.012 ± 0.018 | 0.0625 ± 0.018 | -0.016 ± 0.018 | -0.018 ± 0.0057 | 0.008 ± 0.013 | 0.019 ± 0.014 | 0.021 ± 0.03 | 0.017 ± 0.031 | 0.0025 ± 0.019 | -0.007 ± 0.0057 | 0.0065 ± 0.032
MyoF:PAI-I | -0.013 ± 0.016 | -0.075 | -0.0045 ± 0.0064 | -0.0105 ± 0.00071 | 0.01 ± 0.011 | -0.0055 ± 0.03 | 0.0105 ± 0.0035 | 0.0315 ± 0.0078 | 0.021 ± 0.016 | 0.0285 ± 0.021 | 0.0575 ± 0.0078 | 0.006 ± 0.011 | 0.012 ± 0.0057 | 0.021 ± 0.0014 | -0.0035 ± 0.0021 | -0.011 ± 0.0014 | -0.0035 ± 0.015 | -0.005 ± 0.011 | 0.007 ± 0.013 | 0.011 ± 0.0014
HDF3CGF:MMP-1 | -0.0105 ± 0.0021 | -0.0285 ± 0.018 | 0.004 ± 0.0071 | -0.0015 ± 0.04 | -0.022 ± 0.064 | -0.3945 ± 0.00071 | 0.0115 ± 0.011 | 0.02 ± 0.033 | 0.0145 ± 0.0064 | 0.0155 ± 0.0035 | -0.0185 ± 0.028 | 0.0065 ± 0.0092 | 0.011 ± 0.0085 | 0.0085 ± 0.012 | -0.015 ± 0.027 | -0.039 ± 0.03 | -0.036 ± 0.064 | 0.001 ± 0.0028 | -0.0145 ± 0.0092 | 0.0075 ± 0.0092
MyoF:Collagen I | -0.0495 ± 0.0021 | -0.339 ± 0.012 | 0.012 ± 0.0028 | -0.0045 ± 0.016 | 0.019 ± 0.017 | -0.0165 ± 0.0035 | -0.007 ± 0.011 | 0.0095 ± 0.019 | 0.024 ± 0.013 | 0.0515 ± 0.013 | 0.0495 ± 0.022 | -0.015 ± 0.025 | -0.0085 ± 0.047 | 0.001 ± 0.0071 | 0.011 ± 0.025 | -0.022 ± 0.016 | 0 ± 0.0085 | -0.005 ± 0.0057 | -0.014 ± 0.0099 | 0.0035 ± 0.015
lMphg:SRB-Mphg | 0.005 ± 0.018 | 0.0125 ± 0.011 | 0.0005 ± 0.0092 | 0.0035 ± 0.015 | 0.007 ± 0.013 | 0.0135 ± 0.00071 | -0.011 ± 0.0057 | 0.006 ± 0.017 | 0.002 ± 0.0028 | -0.021 ± 0.0057 | -0.0625 ± 0.013 | 0.005 ± 0.0085 | -0.005 ± 0.014 | -0.012 ± 0.017 | 0.0065 ± 0.0064 | 0.0135 ± 0.0078 | 0.0025 ± 0.036 | -0.025 ± 0.03 | -0.058 ± 0.023 | -0.0025 ± 0.037
4H:VEGFR2 | 0.0055 ± 0.0092 | 0.06 ± 0.024 | -0.061 ± 0.023 | -0.032 ± 0.013 | -0.0255 ± 0.0021 | -0.0225 ± 0.035 | -0.008 ± 0.014 | 0.006 ± 0.034 | -0.008 ± 0.023 | -0.023 ± 0.013 | -0.0965 ± 0.022 | -0.0435 ± 0.0078 | -0.0135 ± 0.029 | -0.015 | -0.0215 ± 0.012 | -0.101 ± 0.0064 | -0.026 ± 0.021 | 0.0065 ± 0.028 | 0.0135 ± 0.023 | -0.009
CASM3C:SRB | -0.0025 ± 0.0092 | 0.007 | -0.0005 ± 0.013 | -0.0085 ± 0.00071 | -0.0045 ± 0.0078 | -0.0025 ± 0.0021 | 0.0015 ± 0.0021 | 0.006 ± 0.0014 | 0.004 ± 0.013 | 0.006 ± 0.013 | -0.0035 ± 0.0078 | 0.005 ± 0.0057 | 0.0025 ± 0.0035 | 0.0035 ± 0.0035 | -0.004 ± 0.0028 | 0.0025 ± 0.0021 | 0.001 ± 0.0085 | 0.0065 ± 0.005 | -0.001 ± 0.0028 | 0.008
MyoF:bFGF | 0.0165 ± 0.016 | -0.0075 ± 0.015 | -0.007 ± 0.017 | 0.006 ± 0.0085 | 0.0125 ± 0.019 | 0.0025 ± 0.005 | 0.016 ± 0.0099 | 0.037 ± 0.021 | -0.0005 ± 0.00071 | -0.001 ± 0.0042 | -0.004 ± 0.023 | 0.0185 ± 0.023 | -0.003 ± 0.0099 | -0.007 ± 0.0057 | -0.0065 ± 0.0078 | 0.019 ± 0.013 | 0.0235 ± 0.044 | -0.0065 ± 0.013 | -0.0045 ± 0.005 | 0.013 ± 0.025
KF3CT:PAI-I | -0.0055 ± 0.04 | -0.0275 ± 0.028 | 0.002 ± 0.016 | -0.0055 ± 0.005 | 0.013 | 0.014 ± 0.0028 | 0.0045 ± 0.019 | -0.0045 ± 0.012 | 0.0045 ± 0.016 | 0.0035 ± 0.021 | -0.0285 ± 0.022 | -0.042 ± 0.0099 | -0.0205 ± 0.036 | -0.0375 ± 0.00071 | 0.0025 ± 0.0021 | -0.012 ± 0.018 | -0.0135 ± 0.0092 | -0.008 ± 0.03 | -0.0005 ± 0.005 | 0 ± 0.0042
3C:CD87/uPAR | -0.0165 ± 0.018 | -0.0175 ± 0.0078 | -0.0295 ± 0.047 | -0.0235 ± 0.039 | -0.0075 ± 0.029 | 0.014 ± 0.034 | 0.01 ± 0.041 | 0.031 ± 0.013 | -0.0335 ± 0.0035 | -0.0565 ± 0.036 | -0.137 ± 0.035 | -0.037 ± 0.0085 | -0.018 ± 0.016 | -0.0095 ± 0.022 | -0.0235 ± 0.07 | -0.0245 ± 0.023 | -0.0015 ± 0.015 | 0.021 ± 0.0028 | 0.0045 ± 0.015 | -0.0075 ± 0.0064
HDF3CGF:CXCL10/IP-10 | 0.0025 ± 0.0021 | -0.026 ± 0.0071 | -0.009 | -0.0135 ± 0.029 | -0.028 ± 0.051 | -0.821 ± 0.0057 | -0.018 ± 0.062 | -0.203 ± 0.03 | -0.02 ± 0.037 | -0.059 ± 0.037 | -0.185 ± 0.069 | -0.012 ± 0.0014 | -0.0055 ± 0.00071 | -0.004 ± 0.0014 | -0.0075 ± 0.018 | -0.046 ± 0.021 | -0.0325 ± 0.042 | 0.011 ± 0.011 | -0.001 ± 0.0042 | 0.0265 ± 0.025
